The values that follow come from paper PMC11187260, “Unraveling the interconversion pharmacokinetics and oral bioavailability of the major ginger constituents: [6]-gingerol, [6]-shogaol, and zingerone after single-dose administration in rats” (Frontiers in Pharmacology, 2024).

Like-named read-outs stand apart in the source and are kept apart here.

On the set-up of data set [1]: method as in Xu et al. (2016) and Jiang et al. (2008). To be noted: 6G after oral administration in rats; ref Xu et al. (2016) and Jiang et al. (2008); cited from earlier work.
Data set [2] in a line: Interconversion clearance between 6G and 6S after intravenous administration. The format is in vivo, Female Sprague Dawley rats. Particulars: single i.v. 3 mg/kg; for clearance: female, Sprague-Dawley, rat, plasma, iv. Here is the method: The interconversion between 6G and 6S was determined using previously published methods ([Ebling and Jusko, 1986]; [Prueksaritanont et al., 2005]). The clearance of 6G biotransformed into 6S was calculated as CL12, while the reverse clearance (6S → 6G) was calculated as CL21. The irreversible elimination clearances of 6G and 6S were calculated as CL10 and CL20, respectively. The following equations were used in accordance with the notation provided in Supplementary Table S3. CL12=Dose^shogaol […] CL21=Dose^gingerol […] CL10=Dose^gingerol x AUCshogaolshogaol- Dose^shogaol […] CL20=Dose^shogaol […]- Dose^gingerol […]

Data set [3] is described as follows: Pharmacokinetics after single intravenous administration (3 mg/kg), plasma LC-MS/MS. In kind it is in vivo, Female Sprague Dawley rats. Particulars: female, Sprague-Dawley, rat, iv, plasma analyte after zingerone i.v. 3 mg/kg, mean ± SD n=6. Here is the method: This study is composed of two sections; the first section involves an investigation of the interconversion pharmacokinetics of the pure compounds, and the second focuses on tissue distribution. All rats were transferred to metabolic cages and fasted overnight for at least 10 h. The animals were then randomly divided into four groups (6 rats/group) to receive a single intravenous (i.v.) administration of either 6G, 6S, zingerone, or vehicle via the lateral tail vein at a dosage of 3 mg/kg. After a 7-week washout period, the rats received 30 mg/kg of the same test compounds through a single oral (p.o.) administration. Following each administration, blood samples (300 µL) were collected in heparinized tubes from the lateral tail vein (while rats were under anesthesia with isoflurane) at specified time points: 0.083, 0.25, 0.5, 1, 1.5, 2, 3, 4, 6, 8, and 24 h after administration. An additional 1 mL of blood sample was collected from each rat at pre-dose (0 h) and post-dose (24 h) for clinical laboratory testing and safety evaluation. All heparinized blood samples were initially centrifuged at 5,000 × g, 4 °C, for 10 min. Subsequently, the plasma was carefully transferred to a cryotube as an aliquot sample and then stored at −40 °C until analysis. Urine and feces were collected during the intervals of 0–24 h and 24–48 h post-dosing, and their weights and volumes were documented. All collected urine and feces samples were stored at −40 °C until analysis. Plasma samples were processed through protein precipitation. In brief, 50 µL of plasma was mixed with 200 µL of methanol containing 50 ng/mL of IS (dihydrocapsaicin). The mixtures were vortexed and centrifuged at 14,000 × g at 4 °C for 10 min. The supernatant was filtered through a […] PVDF membrane (Chrome Tech, MN, USA) before analysis. Investigation of glucuronide conjugations followed a previously published method with some modification ([Wang et al., 2017]; [Songvut et al., 2023]). A 50 μL aliquot of plasma, urine, or feces sample was incubated at 37 °C for a minimum of 30 min with 50 μL of β-glucuronidase (3,000 U/mL) in a sodium phosphate buffer (pH 6.8). For sample extraction, 150 μL of methanol containing 50 μg/L of IS was pipetted into the pre-incubated samples. Subsequently, the mixtures were vortexed for 10 min and then centrifuged at 14,000 × g at 4 °C for 10 min. The supernatants were filtered through a […] PVDF membrane (Chrome Tech, MN, United States) and then analyzed using the validated LC-MS/MS method. Quantitative analysis was conducted using liquid chromatography-tandem mass spectrometry (LC-MS/MS) with a Nexera X2 LCMS-8060NX instrument (Shimadzu, Japan). The instrument included a CBM-40lite system controller, CTO-40C column oven, SIL-40C XR autosampler, LC-40D XR solvent pump unit, FCV-DGU-403 degasser, and 20AH2 switching valve. The LC-MS/MS system was operated with a binary pump and equipped with a triple quadrupole mass spectrometer. Pharmacokinetic parameters were assessed using PK Solutions software (version 2.0) with non-compartmental analysis. The AUC was calculated using the Linear-Log Trapezoidal Method. The maximum plasma concentration (Cmax) and time to reach maximum plasma concentration (Tmax) were taken directly from the graph.

For the molecule `CCCCC[C@H](O)CC(=O)CCc1ccc(O)c(OC)c1` [[6]-gingerol], the Tmax in data set [1] is given as 10 min. Further, in data set [2] (read-out: CL10 (irreversible elimination clearance of 6G) (converted)), the clearance is 8.67 mL/min/kg. Also, in data set [2], the “CL12 relative to reverse clearance CL21” value was “approximately sevenfold greater”.
Take `CCCCC/C=C/C(=O)CCc1ccc(O)c(OC)c1` [[6]-shogaol]: the clearance in data set [2] (read-out: CL20 (irreversible elimination clearance of 6S) (converted)) is 11.3 mL/min/kg.
As to `COc1cc(CCC(C)=O)ccc1O` [zingerone, 4-(4-hydroxy-3-methoxyphenyl)-2-butanone], in data set [3], the area under the curve AUC(0-inf) stood at 12600 ng·h/mL and the C0 came out at 35100 ng/mL. Also, the area under the curve AUC(0-t) in data set [3] (read-out: AUC(0-t)) stood at 12600 ng·h/mL.
